Experimental data: ChEMBL document CHEMBL1201862, “PubChem BioAssay data set” (2004)
Active and inactive are the calls of the source.

Tests used:
Coagulation factor XII = biological target: T1, Coagulation factor XII (Homo sapiens, UniProt P00748); assay type: functional;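 also: activated factor XIIa alpha cleaving a fluorogenic AMC peptide substrate; inhibitor potency from loss of enzyme activity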
T1 sequence (P00748 whole entry): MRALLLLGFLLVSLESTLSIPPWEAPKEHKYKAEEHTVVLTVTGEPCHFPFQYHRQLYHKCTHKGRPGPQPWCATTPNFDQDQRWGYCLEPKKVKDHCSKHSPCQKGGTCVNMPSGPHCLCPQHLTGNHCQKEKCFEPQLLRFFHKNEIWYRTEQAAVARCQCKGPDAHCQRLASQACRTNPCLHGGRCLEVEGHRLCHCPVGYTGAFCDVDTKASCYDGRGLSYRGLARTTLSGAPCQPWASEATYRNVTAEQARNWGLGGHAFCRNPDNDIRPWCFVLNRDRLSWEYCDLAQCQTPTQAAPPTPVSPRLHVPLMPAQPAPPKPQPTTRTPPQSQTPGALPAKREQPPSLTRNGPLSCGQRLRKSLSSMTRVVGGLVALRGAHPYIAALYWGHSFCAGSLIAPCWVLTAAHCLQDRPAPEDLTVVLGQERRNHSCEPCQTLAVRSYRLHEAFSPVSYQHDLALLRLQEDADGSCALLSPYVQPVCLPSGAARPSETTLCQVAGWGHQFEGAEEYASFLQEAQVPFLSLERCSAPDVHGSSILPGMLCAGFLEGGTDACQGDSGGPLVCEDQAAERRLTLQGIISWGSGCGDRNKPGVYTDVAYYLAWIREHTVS

[1] = Trypanosoma cruzi growth suppression in host cells – NIH3T3 host cells, beta-gal luminescence, confirmation (AID 2044); assay type: functional, cell-based;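 also: intracellular parasites grown in NIH/3T3 mouse fibroblasts as host cells; luminescent beta-galactosidase reporter signal from transgenic T. cruzi replicating inside host cells; inhibitors lower the luminescence signal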
[2] = viability of PTEN-deleted HCT116 cells – cell-based, HCT116 PTEN knockout, dose response (AID 1047); assay type: functional;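 also: HCT116 colon tumor cells with PTEN knocked out; cells exposed to compound for 60 hours before readout; potency for loss of cell viability measured by luminescence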
[3] = NIH3T3 cell viability loss – ATP luminescence, mouse fibroblasts, counter-screen, dose response (AID 2010); assay type: functional, cell-based;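 also: cells exposed to compound for about 90 hours before reading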
[4] = viability of HCT116 lacking mutant beta-catenin – cell-based, human colon tumor, dose response (AID 1045); assay type: functional;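 also: HCT116 colon tumor cells with beta catenin knocked out; cells exposed to compound for 60 hours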
Large T antigen = Large T antigen (Simian virus 40, UniProt P03070); assay type: functional, Betapolyomavirus macacae;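 also: Confirmatory-stage PubChem screen for compounds that inhibit SV40 T antigen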
Large T antigen, sequence (P03070 whole entry): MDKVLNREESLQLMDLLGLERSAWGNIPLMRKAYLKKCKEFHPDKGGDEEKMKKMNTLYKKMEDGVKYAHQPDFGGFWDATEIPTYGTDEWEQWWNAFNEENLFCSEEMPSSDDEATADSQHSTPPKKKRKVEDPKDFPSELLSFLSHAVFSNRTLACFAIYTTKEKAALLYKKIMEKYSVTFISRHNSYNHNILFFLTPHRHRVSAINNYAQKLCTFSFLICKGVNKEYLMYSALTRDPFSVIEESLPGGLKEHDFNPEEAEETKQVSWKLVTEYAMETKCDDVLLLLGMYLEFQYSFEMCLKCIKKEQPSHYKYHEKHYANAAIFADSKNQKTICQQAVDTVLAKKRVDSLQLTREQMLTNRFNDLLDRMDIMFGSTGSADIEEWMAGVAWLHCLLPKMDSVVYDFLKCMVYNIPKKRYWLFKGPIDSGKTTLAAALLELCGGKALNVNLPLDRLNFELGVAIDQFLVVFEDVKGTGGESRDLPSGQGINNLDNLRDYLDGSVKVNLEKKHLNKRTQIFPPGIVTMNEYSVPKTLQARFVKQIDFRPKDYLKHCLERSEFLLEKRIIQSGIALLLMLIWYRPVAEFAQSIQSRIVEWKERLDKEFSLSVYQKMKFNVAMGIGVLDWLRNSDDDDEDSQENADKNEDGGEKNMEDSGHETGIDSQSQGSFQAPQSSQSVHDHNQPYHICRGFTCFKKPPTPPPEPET

[5] = biological target: Luciferin 4-monooxygenase (Photinus pyralis, UniProt P08659); experiment: inhibition of purified Photinus pyralis luciferase – biochemical, luminescence, dose response (AID 1891)
Luciferin 4-monooxygenase, sequence (P08659 whole entry): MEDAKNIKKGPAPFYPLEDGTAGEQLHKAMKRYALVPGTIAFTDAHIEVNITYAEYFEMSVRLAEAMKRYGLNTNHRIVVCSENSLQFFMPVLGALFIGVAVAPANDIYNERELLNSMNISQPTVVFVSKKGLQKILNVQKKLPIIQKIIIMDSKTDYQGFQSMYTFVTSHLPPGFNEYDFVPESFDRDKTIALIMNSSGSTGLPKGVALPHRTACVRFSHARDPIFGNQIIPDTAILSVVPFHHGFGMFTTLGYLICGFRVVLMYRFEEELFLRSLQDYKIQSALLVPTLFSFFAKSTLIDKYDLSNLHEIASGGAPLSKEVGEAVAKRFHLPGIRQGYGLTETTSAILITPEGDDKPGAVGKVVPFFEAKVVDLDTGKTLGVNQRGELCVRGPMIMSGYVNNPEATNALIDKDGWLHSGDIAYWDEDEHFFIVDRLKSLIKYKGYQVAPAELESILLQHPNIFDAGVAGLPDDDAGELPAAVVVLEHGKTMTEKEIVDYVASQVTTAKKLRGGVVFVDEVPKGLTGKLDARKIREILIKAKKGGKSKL

[6] = Luminescence Cell-Based Dose Confirmation HTS to Identify Inhibitors of Platelet Dense Granule Release. [Related pubchem assays: 1663 (Primary HTS), 1678 (Summary of Project)]; assay type: functional
[7] = viability loss in THP-1 monocytes – THP-1 cells, cytotoxicity control for Vif-APOBEC3G degradation inhibitor project, dose response (AID 1117359); assay type: functional; conditions: THP-1
Cytochrome P450 2C19 = Cytochrome P450 2C19 (Homo sapiens, UniProt P33261); experiment: Cytochrome panel assay with activity outcomes. Panel member name: p450-cyp2c19 Compounds with AC50 equal or less than 10 uM are considered active; assay type: functional; conditions: read-out: AC50
Cytochrome P450 2C19, sequence (P33261 whole entry): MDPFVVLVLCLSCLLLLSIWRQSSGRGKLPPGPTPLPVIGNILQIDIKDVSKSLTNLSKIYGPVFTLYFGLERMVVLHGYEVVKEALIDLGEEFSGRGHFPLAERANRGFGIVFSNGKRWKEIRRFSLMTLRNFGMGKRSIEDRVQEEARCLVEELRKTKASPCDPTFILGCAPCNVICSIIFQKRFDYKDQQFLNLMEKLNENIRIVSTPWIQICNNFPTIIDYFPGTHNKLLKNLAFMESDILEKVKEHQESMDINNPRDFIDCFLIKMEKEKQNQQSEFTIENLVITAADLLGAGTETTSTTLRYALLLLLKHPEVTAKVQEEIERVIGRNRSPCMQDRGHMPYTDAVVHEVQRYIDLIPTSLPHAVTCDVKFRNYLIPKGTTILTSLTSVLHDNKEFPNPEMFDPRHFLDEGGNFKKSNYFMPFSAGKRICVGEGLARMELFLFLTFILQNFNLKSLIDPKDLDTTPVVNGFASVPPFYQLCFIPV

Cytochrome P450 2D6 = Cytochrome P450 2D6 (Homo sapiens, UniProt P10635);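 also: CYP2D6 member of a cytochrome P450 panel assay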
Cytochrome P450 2D6, sequence (P10635 whole entry): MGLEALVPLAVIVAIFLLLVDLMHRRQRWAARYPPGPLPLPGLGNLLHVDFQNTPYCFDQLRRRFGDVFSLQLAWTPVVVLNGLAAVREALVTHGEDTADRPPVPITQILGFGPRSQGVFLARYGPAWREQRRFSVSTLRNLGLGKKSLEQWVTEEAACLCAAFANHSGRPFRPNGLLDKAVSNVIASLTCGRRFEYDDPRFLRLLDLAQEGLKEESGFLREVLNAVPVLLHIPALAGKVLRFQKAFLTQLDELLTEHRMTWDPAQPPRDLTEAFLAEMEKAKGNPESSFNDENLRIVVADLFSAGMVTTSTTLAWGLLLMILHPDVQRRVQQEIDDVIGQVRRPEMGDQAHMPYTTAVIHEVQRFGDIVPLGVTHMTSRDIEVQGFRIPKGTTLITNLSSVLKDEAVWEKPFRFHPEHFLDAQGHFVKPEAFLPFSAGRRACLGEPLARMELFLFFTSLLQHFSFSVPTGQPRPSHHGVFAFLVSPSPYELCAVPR

[8] = HPDE-C7 pancreatic duct cell viability loss – fluorescence, HTS (AID 430); assay type: functional, cell-based; conditions: Homo sapiens
[9] = viability loss of HPDE-C7K cells – cell-based, fluorescence, HTS, primary screen (AID 431); assay type: functional; conditions: Homo sapiens
Estrogen receptor beta = Estrogen receptor beta (Homo sapiens, UniProt Q92731);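 also: recombinant ER-beta bound to coactivator SRC1 peptide in presence of estradiol agonist; inhibitors block coactivator peptide binding and lower the FRET signal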
Estrogen receptor beta, sequence (Q92731 whole entry): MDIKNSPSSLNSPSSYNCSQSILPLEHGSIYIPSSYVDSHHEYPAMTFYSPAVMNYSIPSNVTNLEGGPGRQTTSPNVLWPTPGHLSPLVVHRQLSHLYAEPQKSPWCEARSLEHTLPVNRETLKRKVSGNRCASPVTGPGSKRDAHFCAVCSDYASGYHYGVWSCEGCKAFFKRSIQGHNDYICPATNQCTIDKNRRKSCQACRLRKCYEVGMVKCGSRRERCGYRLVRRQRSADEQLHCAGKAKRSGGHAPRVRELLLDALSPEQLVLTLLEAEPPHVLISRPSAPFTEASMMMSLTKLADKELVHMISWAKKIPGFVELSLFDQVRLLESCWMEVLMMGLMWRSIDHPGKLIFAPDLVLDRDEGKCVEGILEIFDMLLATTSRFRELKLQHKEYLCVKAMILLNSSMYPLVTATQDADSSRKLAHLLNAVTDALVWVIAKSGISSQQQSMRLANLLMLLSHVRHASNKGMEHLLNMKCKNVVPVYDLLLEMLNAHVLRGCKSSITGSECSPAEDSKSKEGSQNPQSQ

[10] = biological target: T2, Short transient receptor potential channel 4 (Mus musculus, UniProt Q9QUQ5); experiment: block of DAMGO-driven TRPC4 calcium entry – cell-based, HEK293 TRPC4/mu-opioid, Fluo-4 calcium, dose response (AID 434942); assay type: functional;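 also: potency of inhibitors blocking the TRPC4 calcium response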
T2 sequence (Q9QUQ5 whole entry): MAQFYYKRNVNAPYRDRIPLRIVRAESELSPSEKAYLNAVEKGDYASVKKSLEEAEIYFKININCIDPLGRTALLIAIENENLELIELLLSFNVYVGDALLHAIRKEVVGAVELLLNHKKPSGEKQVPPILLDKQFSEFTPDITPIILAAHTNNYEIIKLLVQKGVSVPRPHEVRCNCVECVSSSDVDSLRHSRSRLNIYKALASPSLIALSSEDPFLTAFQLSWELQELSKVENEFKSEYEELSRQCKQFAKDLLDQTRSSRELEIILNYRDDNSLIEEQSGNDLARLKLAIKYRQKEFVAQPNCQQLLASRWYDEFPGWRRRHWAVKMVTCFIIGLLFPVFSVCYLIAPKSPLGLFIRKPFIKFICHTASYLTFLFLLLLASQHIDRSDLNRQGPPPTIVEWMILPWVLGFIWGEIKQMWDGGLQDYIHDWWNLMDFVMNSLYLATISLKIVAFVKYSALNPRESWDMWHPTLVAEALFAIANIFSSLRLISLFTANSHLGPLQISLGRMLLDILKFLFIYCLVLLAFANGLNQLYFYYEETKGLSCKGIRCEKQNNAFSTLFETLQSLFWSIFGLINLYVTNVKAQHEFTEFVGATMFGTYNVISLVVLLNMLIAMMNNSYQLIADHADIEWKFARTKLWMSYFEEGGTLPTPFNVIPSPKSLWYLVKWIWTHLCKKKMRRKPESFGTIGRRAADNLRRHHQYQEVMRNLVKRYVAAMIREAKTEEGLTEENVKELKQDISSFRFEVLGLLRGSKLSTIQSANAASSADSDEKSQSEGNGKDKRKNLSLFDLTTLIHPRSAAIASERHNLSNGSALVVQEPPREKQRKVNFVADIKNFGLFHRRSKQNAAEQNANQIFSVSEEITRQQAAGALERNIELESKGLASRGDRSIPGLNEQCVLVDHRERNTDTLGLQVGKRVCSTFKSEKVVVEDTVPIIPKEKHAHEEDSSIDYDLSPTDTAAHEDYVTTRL

[11] = P. falciparum Dd2 growth inhibitors, dose response, SYBR Green, cherry-picked samples (AID 1159567); assay type: functional, cell-based
[12] = toxicity to human hepatoma HepG2 cells – cell-based, cherry-picked samples, cytotoxicity control, dose response (AID 1159577); assay type: functional
[13] = THP-1 cell cytotoxicity, dose response, cytotoxicity control for non-replicating M. tuberculosis project (AID 489025); assay type: functional
[14] = Vero E6 cell cytotoxicity, dose response, cytotoxicity control for non-replicating M. tuberculosis project, secondary assay (AID 492998); assay type: functional, VeroE6; conditions: Vero C1008
cells = assay type: functional
[15] = biological target: T3, Replicative DNA helicase DnaB (Mycobacterium tuberculosis, UniProt P9WMR3); experiment: DnaB intein splicing inhibitors, dose response, biochemical, cell-free fluorescence (AID 449749); assay type: functional
T3 sequence (P9WMR3 whole entry): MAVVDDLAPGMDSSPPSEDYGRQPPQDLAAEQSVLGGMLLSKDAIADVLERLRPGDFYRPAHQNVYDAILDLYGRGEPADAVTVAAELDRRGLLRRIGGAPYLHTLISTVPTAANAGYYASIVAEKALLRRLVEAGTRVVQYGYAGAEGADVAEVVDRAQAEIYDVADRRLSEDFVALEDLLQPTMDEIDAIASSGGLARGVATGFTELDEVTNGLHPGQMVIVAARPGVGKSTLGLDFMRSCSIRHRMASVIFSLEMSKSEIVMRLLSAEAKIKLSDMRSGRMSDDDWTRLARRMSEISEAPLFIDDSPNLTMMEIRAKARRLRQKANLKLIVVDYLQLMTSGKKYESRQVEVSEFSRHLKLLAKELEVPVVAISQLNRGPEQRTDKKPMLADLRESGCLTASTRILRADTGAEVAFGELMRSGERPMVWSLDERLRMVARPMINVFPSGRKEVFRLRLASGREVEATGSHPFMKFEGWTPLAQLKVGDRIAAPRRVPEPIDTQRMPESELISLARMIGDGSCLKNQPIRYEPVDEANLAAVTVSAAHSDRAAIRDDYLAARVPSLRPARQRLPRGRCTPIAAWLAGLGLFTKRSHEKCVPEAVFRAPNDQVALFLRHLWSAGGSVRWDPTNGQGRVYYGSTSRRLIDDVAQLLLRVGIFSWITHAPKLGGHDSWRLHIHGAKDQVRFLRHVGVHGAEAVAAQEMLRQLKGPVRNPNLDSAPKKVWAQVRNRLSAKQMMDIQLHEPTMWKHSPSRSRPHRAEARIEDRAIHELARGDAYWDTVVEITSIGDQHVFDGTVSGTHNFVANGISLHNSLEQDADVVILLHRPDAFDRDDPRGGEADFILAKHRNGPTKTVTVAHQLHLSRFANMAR

Protein RecA = biological target: T4, Protein RecA (Mycobacterium tuberculosis, UniProt P9WHJ3); experiment: Fluorescence Cell-Free Homogeneous Dose Retest to Identify Inhibitors of RecA-Intein Splicing Activity. [Related pubchem assays (depositor defined):AID2097, AID2223, AID489010, AID492950]; assay type: functional
T4 sequence (P9WHJ3 whole entry): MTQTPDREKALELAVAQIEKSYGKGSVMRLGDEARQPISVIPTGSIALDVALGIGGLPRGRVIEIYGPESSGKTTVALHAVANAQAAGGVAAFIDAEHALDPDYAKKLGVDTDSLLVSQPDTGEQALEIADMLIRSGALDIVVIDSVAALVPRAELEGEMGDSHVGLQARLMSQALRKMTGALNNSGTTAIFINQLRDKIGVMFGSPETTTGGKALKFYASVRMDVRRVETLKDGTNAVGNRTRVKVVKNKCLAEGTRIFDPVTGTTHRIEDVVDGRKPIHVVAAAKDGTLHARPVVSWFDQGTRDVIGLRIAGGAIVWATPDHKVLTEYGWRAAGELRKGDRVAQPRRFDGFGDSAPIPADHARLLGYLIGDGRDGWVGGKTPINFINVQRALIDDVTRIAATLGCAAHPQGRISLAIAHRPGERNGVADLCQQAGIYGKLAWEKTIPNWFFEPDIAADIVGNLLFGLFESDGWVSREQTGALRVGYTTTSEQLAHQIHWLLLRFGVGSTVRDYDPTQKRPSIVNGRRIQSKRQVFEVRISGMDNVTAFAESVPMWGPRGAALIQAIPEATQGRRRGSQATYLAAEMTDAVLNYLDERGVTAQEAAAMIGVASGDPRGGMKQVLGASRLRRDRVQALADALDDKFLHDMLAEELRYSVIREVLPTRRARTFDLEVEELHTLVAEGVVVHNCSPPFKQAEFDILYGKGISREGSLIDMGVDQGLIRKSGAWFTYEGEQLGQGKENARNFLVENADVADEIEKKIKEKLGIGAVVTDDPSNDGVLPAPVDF

[16] = biological target: DNA dC->dU-editing enzyme APOBEC-3A (Homo sapiens, UniProt P31941); experiment: A3A deaminase inhibition for selectivity – biochemical, dose response (AID 504722); assay type: functional
DNA dC->dU-editing enzyme APOBEC-3A, sequence (P31941 whole entry): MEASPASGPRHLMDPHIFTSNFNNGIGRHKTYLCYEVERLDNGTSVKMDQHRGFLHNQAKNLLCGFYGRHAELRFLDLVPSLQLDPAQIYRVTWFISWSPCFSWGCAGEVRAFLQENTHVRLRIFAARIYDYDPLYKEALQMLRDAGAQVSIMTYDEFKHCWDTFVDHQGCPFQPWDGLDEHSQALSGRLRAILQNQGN

[17] = biological target: DNA dC->dU-editing enzyme APOBEC-3G (Homo sapiens, UniProt Q9HC16); experiment: Dose Response confirmation of small molecule APOBEC3G DNA Deaminase Inhibitors via a fluorescence-based single-stranded DNA deaminase assay. [Related pubchem assays (depositor defined):AID493012, AID493028]; assay type: functional
DNA dC->dU-editing enzyme APOBEC-3G, sequence (Q9HC16 whole entry): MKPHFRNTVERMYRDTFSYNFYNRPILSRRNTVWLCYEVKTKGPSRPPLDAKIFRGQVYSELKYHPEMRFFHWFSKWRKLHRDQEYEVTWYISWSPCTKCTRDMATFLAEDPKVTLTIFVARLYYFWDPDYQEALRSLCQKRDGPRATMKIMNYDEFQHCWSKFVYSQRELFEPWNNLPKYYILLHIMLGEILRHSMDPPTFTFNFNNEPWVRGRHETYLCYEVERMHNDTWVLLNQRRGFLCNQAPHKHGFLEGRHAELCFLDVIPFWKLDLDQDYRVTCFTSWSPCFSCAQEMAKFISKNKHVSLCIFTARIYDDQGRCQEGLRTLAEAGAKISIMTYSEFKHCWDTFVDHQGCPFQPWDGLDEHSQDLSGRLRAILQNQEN

COc1ccc(N2C(=O)C(Cl)=C(N3CCCC(C)C3)C2=O)cc1 (stereo not drawn)
IC50 (Coagulation factor XII): > 50 µM (inactive)

OCCCCNCc1ccc(OCc2ccc(Cl)cc2Cl)cc1
EC50 [1]: 1.68 µM (active) | EC50 [2]: 10.9 µM (active) | EC50 [3]: 17.3 µM (active) | EC50 [4]: 9.83 µM (active)

CCOc1cc(/C=N/NC(=O)N/N=C/c2ccc(O)c(OCC)c2)ccc1O
IC50 (Large T antigen): 4.27 µM (active) | EC50 [5]: 1.2 µM (active) | EC50 [6]: 11.8 µM (active)

O=C(c1ccc(Cl)c([N+](=O)[O-])c1)N(Cc1ccc(Cl)cc1)C1CCS(=O)(=O)C1 (stereo not drawn)
EC50 [2]: 26.8 µM (active) | EC50 [4]: 17.9 µM (active)

Cc1cc(C(=O)CCl)c(C)n1-c1c(C)n(C)n(-c2ccccc2)c1=O
CC50 [7]: > 40 µM (active)

Cc1cccc(NC(S)=NC2CC3CCCC(C2)N3Cc2cccs2)c1 (stereo not drawn)
EC50 [2]: 65.3 µM (active) | EC50 [4]: 92.3 µM (active) | AC50 (Cytochrome P450 2C19): 28.2 µM (inconclusive) | AC50 (Cytochrome P450 2D6): 3.98 µM (inconclusive)

Cc1nn2c(-c3cccc(NC(=O)CSc4nc5ccccc5o4)c3)nnc2c2ccccc12
EC50 [8]: 7.91 µM (active) | EC50 [9]: 7.73 µM (active) | IC50 (Estrogen receptor beta): > 50 µM (not active)

Cc1cccc(-n2c(O)nc3c(C(N)=O)nc(-c4ccccc4Cl)nc32)c1
EC50 [2]: 10.5 µM (active) | EC50 [4]: 11.2 µM (active)

COC(=O)CSc1nnc(-c2sc3cc(OC)ccc3c2Cl)n1C
EC50 [10]: 0.531 µM (active) | IC50 (Coagulation factor XII): > 50 µM (inactive)

CCOc1ccc(N(CC(=O)N2CCC(Cc3ccccc3)CC2)S(C)(=O)=O)cc1
CC50 [7]: > 40 µM (active)

Cc1cccc(-c2ccc([C@@H]3[C@@H](CO)N4CCCCN(CCC(F)(F)F)C[C@H]34)cc2)c1
AC50 [11]: 0.801 µM (active) | AC50 [12]: 8.79 µM (active)

COC(=O)c1cccc(NS(=O)(=O)c2ccc(OC)c(OC)c2)c1C
IC50 (Coagulation factor XII): > 50 µM (inactive)

O=c1n(Cc2ccc(Cl)cc2)c2sc3c(c2c2ncnn12)CCCC3
EC50 [8]: 13.3 µM (active) | EC50 [9]: 13.1 µM (active)

Cc1nn(-c2cccc(Cl)c2)c(O)c1/C=N/n1c(C)nc2ccccc2c1=O
CC50 [13]: 28.7 µM (active) | CC50 [14]: > 20 µM (active) | IC50 (cells): 45.1 µM (active)

CC1=C/C(=N/c2c(C)n(C)n(-c3ccccc3)c2=O)C=CC1=O
AC50 [15]: 29.5 µM (active) | EC50 (Protein RecA): 14 µM (active) | CC50 [7]: > 40 µM (active)

O=C(C[C@H]1C[C@@H]2c3cc(NC(=O)c4cccnc4)ccc3O[C@@H]2[C@@H](CO)O1)NCc1ccc(Oc2ccccc2)cc1
AC50 [11]: 13.7 µM (active) | AC50 [12]: > 39 µM (inactive)

S=c1[nH]nc(Cc2cccs2)n1-c1ccccc1
IC50 [16]: > 100 µM (inactive) | IC50 [17]: 7.51 µM (active)
